Drawing on ChEMBL document CHEMBL3600366, “New 4-[(3-cyclohexyl-4-aryl-2,3-dihydro-1,3-thiazol-2-ylidene)amino]benzene-1-sulfonamides, synthesis and inhibitory activity toward carbonic anhydrase I, II, IX, XII” (Bioorg Med Chem Lett, 2015), this text covers Ki for 13 compounds.

pKi: −log10 of the molar value.

For one experiment, the target named is Carbonic anhydrase 1 (Homo sapiens, UniProt P00915). Put plainly: Inhibition of human carbonic anhydrase-1.
Carbonic anhydrase 1, sequence (P00915 whole entry): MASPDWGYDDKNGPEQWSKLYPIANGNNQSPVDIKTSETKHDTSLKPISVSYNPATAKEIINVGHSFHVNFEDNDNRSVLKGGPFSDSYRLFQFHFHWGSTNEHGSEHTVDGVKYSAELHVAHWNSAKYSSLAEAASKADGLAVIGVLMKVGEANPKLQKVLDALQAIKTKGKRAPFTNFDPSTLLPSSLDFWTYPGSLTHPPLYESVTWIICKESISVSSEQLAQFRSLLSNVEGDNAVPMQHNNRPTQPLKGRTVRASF
The term pKi denotes −log10 of the Ki, conventionally taken in molar units. `NS(=O)(=O)c1ccc(/N=c2\scc(-c3ccc(Br)cc3)n2C2CCCCC2)cc1` gave a negative-log Ki (pKi) of less than 5.00.

In a further experiment the target is Carbonic anhydrase 9 (Homo sapiens, UniProt Q16790). In words: Inhibition of human carbonic anhydrase-9.
For the compound `NS(=O)(=O)c1ccc(/N=c2\scc(-c3ccc(Cl)cc3)n2C2CCCCC2)cc1`, the pKi was 6.45.

`NS(=O)(=O)c1ccc(/N=c2\scc(-c3ccc(F)cc3)n2C2CCCCC2)cc1` gave a pKi of 6.56.

For the compound `NS(=O)(=O)c1ccc(/N=c2\scc(-c3cccc([N+](=O)[O-])c3)n2C2CCCCC2)cc1`, the pKi is 6.71.

Turning to `NS(=O)(=O)c1ccc(/N=c2\scc(-c3ccc(Cl)cc3Cl)n2C2CCCCC2)cc1`, the pKi was 6.47.

On to `N#Cc1ccc(-c2cs/c(=N\c3ccc(S(N)(=O)=O)cc3)n2C2CCCCC2)cc1`, for which the pKi was 7.53.

`NS(=O)(=O)c1ccc(/N=c2\scc(-c3ccc(F)cc3F)n2C2CCCCC2)cc1` gave a pKi of 7.07.

As to `NS(=O)(=O)c1ccc(/N=c2\scc(-c3ccc([N+](=O)[O-])cc3)n2C2CCCCC2)cc1`, the pKi was 7.53.

Compound `NS(=O)(=O)c1ccc(/N=c2\scc(-c3ccc(-c4ccccc4)cc3)n2C2CCCCC2)cc1` gave a pKi of 7.49.

As for `Cc1ccc(-c2cs/c(=N\c3ccc(S(N)(=O)=O)cc3)n2C2CCCCC2)cc1`, the pKi is 7.64.

`COc1ccc(-c2cs/c(=N\c3ccc(S(N)(=O)=O)cc3)n2C2CCCCC2)cc1` gave a pKi of 7.78.

`NS(=O)(=O)c1ccc(/N=c2\scc(-c3cccs3)n2C2CCCCC2)cc1` showed a pKi of 6.82.

With `NS(=O)(=O)c1ccc(/N=c2\scc(-c3ccccc3)n2C2CCCCC2)cc1`, the pKi was 6.45.
